# Measured values taken from patent US4093722A, “Sulfonylimidazolidone substituted cephalosporins, antibacterial compositions containing them, and methods of combatting bacteria employing them” (Bayer Aktiengesellschaft, priority 1974, dated 1978).
# Assays:
# [1] = test system: B. subtilis; assay: Antibiotic activity of electropherogram spot; assay type: cell-based
# [2] = test system: Escherichia coli; assay: Antibiotic activity of electropherogram spot; assay type: cell-based
# [3] = test system: Pseudomonas aeruginosa; assay: Antibiotic activity of electropherogram spot; assay type: cell-based
# [4] = Antibiotic activity of electropherogram spot (germ not stated); assay type: cell-based
# [5] = test system: Streptococcus pyogenes W.; assay: In vitro turbidity test (Muller-Hinton broth); assay type: cell-based; details: 100 μg/ml, 24 hours incubation
# [6] = test system: Brucella sp.; assay type: cell-based; details: 100 μg/ml, 24 hours incubation
# [7] = test system: Serratia marcescens; assay: In vitro turbidity test (Muller-Hinton broth); assay type: cell-based; details: 100 μg/ml, 24 hours incubation
# [8] = test system: Salmonella sp.; assay: In vitro turbidity test (Muller-Hinton broth); assay type: cell-based; details: 100 μg/ml, 24 hours incubation
# [9] = test system: Pasteurella pseudotuberculosis; assay type: cell-based; details: 100 μg/ml, 24 hours incubation
# [10] = test system: Lactobacillus sp.; assay: In vitro turbidity test (Muller-Hinton broth); assay type: cell-based; details: 100 μg/ml, 24 hours incubation
# [11] = test system: Diplococcus pneumoniae sp.; assay: In vitro turbidity test (Muller-Hinton broth); assay type: cell-based; details: 100 μg/ml, 24 hours incubation
# [12] = test system: Haemophilis influenzae; assay: In vitro turbidity test (Muller-Hinton broth); assay type: cell-based; details: 100 μg/ml, 24 hours incubation
# [13] = test system: Shigella sp.; assay: In vitro turbidity test (Muller-Hinton broth); assay type: cell-based; details: 100 μg/ml, 24 hours incubation
# [14] = test system: Enterobacter aerogenes sp.; assay: In vitro turbidity test (Muller-Hinton broth); assay type: cell-based; details: 100 μg/ml, 24 hours incubation
# [15] = test system: Bordetella bronchiseptica; assay: In vitro turbidity test (Muller-Hinton broth); assay type: cell-based; details: 100 μg/ml, 24 hours incubation
# [16] = test system: Staphylococcus aureus 133; assay: In vitro turbidity test (Muller-Hinton broth); assay type: cell-based; details: 100 μg/ml, 24 hours incubation
# [17] = test system: Enterococcus sp.; assay: In vitro turbidity test (Muller-Hinton broth); assay type: cell-based; details: 100 μg/ml, 24 hours incubation
# [18] = test system: Corynebacterium pyogenes M.; assay: In vitro turbidity test (Muller-Hinton broth); assay type: cell-based; details: 100 μg/ml, 24 hours incubation
# [19] = test system: Klebsiella pneumoniae; assay: In vitro turbidity test (Muller-Hinton broth); assay type: cell-based; details: 100 μg/ml, 24 hours incubation
# [20] = test system: Neisseria catarrhalis sp.; assay: In vitro turbidity test (Muller-Hinton broth); assay type: cell-based; details: 100 μg/ml, 24 hours incubation
# [21] = test system: Proteus, indole negative and indole positive sp.; assay: In vitro turbidity test (Muller-Hinton broth); assay type: cell-based; details: 100 μg/ml, 24 hours incubation
# [22] = test system: Providencia; assay: In vitro turbidity test (Muller-Hinton broth); assay type: cell-based; details: 100 μg/ml, 24 hours incubation
# [23] = test system: Escherichia coli BE; assay: In vitro turbidity test (Muller-Hinton broth); assay type: cell-based; details: 100 μg/ml, 24 hours incubation
# [24] = test system: Corynebacterium diphteriae gravis; assay: In vitro turbidity test (Muller-Hinton broth); assay type: cell-based; details: 100 μg/ml, 24 hours incubation
# [25] = test system: Klebsiella; assay: Animal experiments with white mice (intraperitoneal infection); assay type: in vivo, white mice of strain CF1 infected with Klebsiella; details: sc, white mice CF1, subcutaneous, 1 administration 30 minutes after infection (1 × dose), 50% survive after 24 hours
# Description: (§1) The white mice of strain CF1 were infected intraperitoneally with the species of bacteria indicated.
# (§2) Determination of the ED50 after 24 hours
# (§3) Therapy: 1 administration 30 minutes after infection.
# (§4) The ED50 is the dose at which 50% of the infected animals still survive after 24 hours.
# [26] = test system: Escherichia coli C 165; assay: as above; assay type: in vivo, white mice of strain CF1 infected with Escherichia coli; details: C165, sc, white mice CF1, subcutaneous, 1 administration 30 minutes after infection (1 × dose), 50% survive after 24 hours
# Description: as §1, §2, §3, §4
# [27] = test system: Staphylococcus aureus 133; assay: as above; assay type: in vivo, white mice of strain CF1 infected with Staphylococcus aureus; details: Staphylococcus aureus, 133, sc; white mice CF1, subcutaneous, 1 administration 30 minutes after infection (1 × dose); 50% survive after 24 hours
# Description: as §1, §2, §3, §4
# [28] = test system: bacteria from the genus Pseudomonades; details: known art; cited from earlier work
SMILES,freedom from turbidity [5],freedom from turbidity [6],freedom from turbidity [7],freedom from turbidity [8],freedom from turbidity [9],freedom from turbidity [10],freedom from turbidity [11],freedom from turbidity [12],freedom from turbidity [13],freedom from turbidity [14],freedom from turbidity [15],freedom from turbidity [16],freedom from turbidity [17],freedom from turbidity [18],freedom from turbidity [19],freedom from turbidity [20],freedom from turbidity [21],freedom from turbidity [22],freedom from turbidity [23],freedom from turbidity [24],also measured
"CC(=O)OCC1=C(C(=O)[O-])N2C(=O)C(NC(=O)[C@H](NC(=O)N3CCNC3=O)c3ccccc3)[C@H]2SC1.[Na+] (stereo partly drawn) [Example 1, sodium 7-{D-α-[(2-oxo-imidazolidin-1-yl)-carbonylamino]-phenylacetamido}-3-acetoxymethyl-ceph-3-em-4-carboxylate]",,,,,,,,,,,,,,,,,,,,,antibiotic activity of the electropherogram spot [1]: only one spot with antibiotic activity; antibiotic activity of the electropherogram spot [2]: only one spot with antibiotic activity; antibiotic activity of the electropherogram spot [3]: only one spot with antibiotic activity
"CC1=C(C(=O)O)N2C(=O)C(NC(=O)[C@H](NC(=O)N3CCNC3=O)c3ccccc3)[C@H]2SC1 (stereo partly drawn) [Example 2, 7-{D-α-[(2-Oxo-imidazolidin-1-yl)-carbonylamino]-phenylacetamido}-3-methyl-ceph-3-em-4-carboxylic acid]",,,,,,,,,,,,,,,,,,,,,antibiotic activity of the electropherogram spot [4]: only one spot with antibiotic activity
"CC(=O)OCC1=C(C(=O)[O-])N2C(=O)C(NC(=O)[C@H](NC(=O)N3CCN(C)C3=O)c3ccccc3)[C@H]2SC1.[Na+] (stereo partly drawn) [Example 3, sodium 7-{D-α-[(3-methyl-2-oxo-imidazolidin-1-yl)-carbonylamino]-phenylacetamido}-3-acetoxymethyl-ceph-3-em-4-carboxylate]",free from turbidity,free from turbidity,free from turbidity,free from turbidity,free from turbidity,free from turbidity,free from turbidity,free from turbidity,free from turbidity,free from turbidity,free from turbidity,free from turbidity,free from turbidity,free from turbidity,free from turbidity,free from turbidity,free from turbidity,free from turbidity,free from turbidity,free from turbidity,
"CC(=O)OCC1=C(C(=O)[O-])N2C(=O)C(NC(=O)[C@H](NC(=O)N3CCN(S(C)(=O)=O)C3=O)c3ccccc3)[C@H]2SC1.[Na+] (stereo partly drawn) [Example 6, Sodium 7-{D-α-[(2-oxo-3-mesyl-imidazolidin-1-yl)-carbonylamino]-phenylacetamido}-3-acetoxymethyl-ceph-3-em-4-carboxylate]",free from turbidity,free from turbidity,free from turbidity,free from turbidity,free from turbidity,free from turbidity,free from turbidity,free from turbidity,free from turbidity,free from turbidity,free from turbidity,free from turbidity,free from turbidity,free from turbidity,free from turbidity,free from turbidity,free from turbidity,free from turbidity,free from turbidity,free from turbidity,ED50 [25]: 150 mg/kg; ED50 [26]: 200 mg/kg; antibiotic activity of the electropherogram spot [4]: only shows one spot with antibiotic activity; ED50 [27]: 10 mg/kg
"CC(=O)OCC1=C(C(=O)[O-])N2C(=O)C(NC(=O)[C@H](NC(=O)N3CCN(S(=O)(=O)c4ccccc4)C3=O)c3ccccc3)[C@H]2SC1.[Na+] (stereo partly drawn) [Example 7, Sodium 7-{D-α-[(2-oxo-3-phenylsulphonyl-imidazolidin-1-yl)-carbonylamino]-phenylacetamido}-3-acetoxymethyl-ceph-3-em-4-carboxylate]",free from turbidity,free from turbidity,free from turbidity,free from turbidity,free from turbidity,free from turbidity,free from turbidity,free from turbidity,free from turbidity,free from turbidity,free from turbidity,free from turbidity,free from turbidity,free from turbidity,free from turbidity,free from turbidity,free from turbidity,free from turbidity,free from turbidity,free from turbidity,
"CC(=O)OCC1=C(C(=O)O)N2C(=O)C(NC(=O)C(N)c3ccccc3)[C@H]2SC1 (stereo partly drawn) [cephaloglycine, 7-(α-amino-phenylacetamido)-3-acetoxymethyl-ceph-3-em-4-carboxylic acid]",,,,,,,,,,,,,,,,,,,,,activity against infections caused by Pseudomonades [28]: not active
